What was measured:
[1] = test system: RAW 264.7 cells (growth, thymidine incorporation); test: Cytotoxicity by 3H-thymidine incorporation in murine RAW 264.7 cells; details: mouse, RAW 264.7 cells
Experimental: (§1) The final aldehyde concentrations in the test were 0.01-34 μmol/mL.
(§2) The cytotoxicity of dextran derivatives was evaluated in murine RAW 264.7 cells, an internationally recognized cell line for examination of drug effects.
(§3) Growth inhibition was estimated by the ^3H-thymidine incorporation method. Cells were cultured in flat-bottom flasks at 37° C. Before each experiment the cells were washed and removed by trypsin treatment or scraped from the flask bottom, and an appropriate volume was centrifuged, resuspended, and diluted in growth medium to the desired cell concentration. […] By use of an automated dispenser, 200 μL of cell suspension was added to each well of a microtiter plate. After incubation overnight, the appropriate drug concentration, in triplicate, was added to test wells. Drug-free medium was used as control. ^3H-Thymidine (0.5 μCi) in 20 μL of medium was added the next day, and the plate was harvested and read by liquid scintillation counter (LKB, Finland) after an additional 24 h. The percent growth inhibition of the cells by the drug tested was calculated as [100−(count with drug/control count)×100].
(§4) Dextran with 50% oxidation was used as a positive toxicity control.
(§5) Drug effect and the IC50 were defined as previously described.

[2] = test system: Leishmania donovani IS promastigotes; test: In vitro activity against Leishmania donovani promastigotes (3H-thymidine incorporation); format: cell-based
Experimental: The in vitro antiparasitic activity was evaluated against Leishmania donovani IS promastigotes. This strain, isolated from a patient in Sudan, was received from the International Reference Center of the Kuvin Center for Infectious Diseases in the Hebrew University of Jerusalem.
Serial dilutions of the tested agents were prepared in RPMI 1640 growth medium. The final AmB concentration in the test ranged from 0.2 to 6 μg/mL. Wells containing drug-free medium served as control. […] Briefly, 96-well plates were seeded with 60,000 promastigotes/well in 200 μL of medium, and test solutions were added 3 h later. After 24 h of incubation, 0.5 μCi/well ^3H-thymidine (in 10% FCS medium) was added, and the cultures were harvested after an additional 24 h. During the experiment the cells were incubated at 25° C. in air. The drug effect and the IC50 of the conjugates were estimated as described before (Example 7).

[3] = test system: Sheep erythrocytes; test: Hemolysis evaluated visually after 1 h incubation at 37° C.; format: cell-based; details: visual
[4] = test system: RAW 264.7 cells; test: Cytotoxicity by 3H-thymidine incorporation in murine RAW 264.7 cells
Experimental: as §1, §2, §3, §4, §5

[5] = test system: Staphylococcus Aureus and E. Coli; test: Antimicrobial activity, filter paper disc on seeded agar plate; format: cell-based; details: 24 hours at 37° C.; 6 mm filter paper; equivalent amounts of drug
Experimental: The antimicrobial activity of these conjugates was determined as follows: Saline solutions of equivalent amounts of the drug in free form or the imine AG conjugate were absorbed onto a circular filter paper (6 mm in diameter) and placed on a seeded agar plate with Staphylococcus Aureus (10^5/ml) and E. Coli incubated for 24 hours at 37° C.

[6] = In vitro release of conjugated drug into solution/buffer; format: physicochemical; details: after 12 hours in buffer at pH7.4 at 37° C.
Experimental: About 10% of the conjugated drug was released after 12 hours in a buffer at pH7.4 at 37° C.

Compound: O=CCCCC=O [Glutaraldehyde]
- IC50 at 48 h [1]: < 0.15 µg/mL

Compound: C[C@@H]1[C@H](O)[C@@H](C)/C=C/C=C/C=C/C=C/C=C/C=C/C=C/[C@H](O[C@@H]2O[C@H](C)[C@@H](O)[C@H](N)[C@@H]2O)C[C@@H]2O[C@](O)(C[C@@H](O)C[C@@H](O)[C@H](O)CC[C@@H](O)C[C@@H](O)CC(=O)O[C@H]1C)C[C@H](O)[C@H]2C(=O)O [Free AmB, Amphotericin B]
- toxicity/activity to parasites ([2]; AmB and dextran-AmB conjugates): extremely toxic
- Antiparasitic activity IC50 ([2]; Leishmania donovani, 3H-thymidine incorporation): 0.05 μgAmB/ml
- Hemolysis [3]: 16 μgAmB/ml
- toxicity to cells ([4]; AmB and dextran-AmB conjugates, equivalent AmB amounts): extremely toxic
- Toxicity IC50 ([4]; murine RAW 264.7 cell line, 3H-thymidine incorporation): 9 μgAmB/ml

Compound: gentamicin
- inhibition zone [5]: > 20 mm

Compound: Somatostatin-Arabinogalactan Ethanolamine Conjugate: somatostatin conjugated to 32% oxidized AG, reacted with excess ethanolamine
- conjugated drug released [6]: About 10%

Compound: Native Dextran
- IC50 (in vitro cytotoxicity of modified dextran) [4]: >5000 µg/mL

— patent publication US20100159012A1, “Conjugates of Therapeutically Active Compounds” (priority 2005, published 2010)
